Experiments:
[1] = exposure to conditions mimicking the pH of the gut (beta hydroxy dehydration at low pH); format: physicochemical; settings: for dehydration of exposed beta hydroxy groups relative to the salts or free acid of β-hydroxybutyrate: low pH conditions
Source text: The present invention generally relates to means of protecting or stabilizing the beta hydroxy group in β-hydroxybutyrate in order to prevent beta hydroxy dehydration in the presence of strong acid, such as found in the stomach. That reaction is a type of gastric degradation which yield compounds with no known metabolic therapy. […] Stabilizing the beta hydroxy group is possible by replacing the carboxylic acid functional group with an ester functional group, which prevents resonance between the two oxygen atoms by hydrogen and considerably stabilizes the beta hydroxy group reducing dehydration by as much as 40% compared to salts and the free acid of β-hydroxybutyrate. Protecting the beta hydroxy group is defined by replacing the beta hydroxy group with a second molecule of β-hydroxybutyrate forming an ester bond at the previous beta hydroxy functional group and yielding a dimer ester (DE) of β-hydroxybutyrate. Further described herein are similar therapeutic agents, compositions, and production processes thereof. […] The Dimer Esters protecting the beta hydroxy group are far less susceptible than any other identified compound to dehydration because only one beta hydroxy group is exposed of the two effective molecules of β-hydroxybutyrate This is disclosed in the prior art providing room for more advantageous compounds and formulations thereof as described herein. A third experiment was carried out exposing the salts and KME to conditions mimicking the pH of the gut.

[2] = healthy resting adults; cited from earlier work

Row | dehydration of exposed beta hydroxy groups relative to the salts or free acid of β-hydroxybutyrate [1] | dehydration on exposure to conditions mimicking the pH of the gut ([1]; third experiment, yields undesirable products) | Structure (SMILES) | increase of myocardial output [2] [%]
1 | dehydrate to a far lesser extent | Rapid dehydration was observed | C[C@@H](O)CCOC(=O)C[C@@H](C)O [KME, (3R)-hydroxybutyl (3R)-hydroxybutyrate] | –
2 | dehydrate to a far lesser extent | – | CC(CCO)OC(=O)C[C@@H](C)O (stereo partly shown) [SKE] | –
3 | – | – | CC(O)CC(=O)O (stereo not drawn) [beta hydroxybutyrate] | 50
